Experimental findings from US20260242419A1, “A CYCLIC PEPTIDE FOR TRAPPING INTERLEUKIN-1 BETA” (Merck Sharp & Dohme LLC, priority 2023, published 2026) are described below.

Starred links: 1 amine or outer side, 2 acyl side, 3 side chain; linkers in the order of their positions; H or OH if unused. Non-standard residues stand in square brackets, D forms with d. Residues, ends and D or L forms follow the SMILES beside them. dPro(4R-(4-pyridylmethyl)) = O=C(O)[C@H]1C[C@@H](Cc2ccncc2)CN1; Ala(piperidin-4-yl) = O=C([C@H](CC1CCN([*:3])CC1)N[*:1])[*:2]; Trp(βS-Me,4-F) = C[C@@H](c1c[nH]c2cccc(F)c12)[C@H](N)C(=O)O; Bip(4'-COOH) = N[C@@H](Cc1ccc(-c2ccc(C(=O)O)cc2)cc1)C(=O)O; X11 = O=C([C@H]1C[C@@H](Cc2ccc(F)c3ccccc23)CN1[*:1])[*:2]; dPro(4R-Bzl(4-F)) = O=C(O)[C@H]1C[C@@H](Cc2ccc(F)cc2)CN1; X4 = O=C([C@H]1[C@@H](Cc2ccncc2)CCN1[*:1])[*:2]; Ala(morpholin-4-yl) = N[C@@H](CN1CCOCC1)C(=O)O; Ala(pyrimidin-5-yl) = N[C@@H](Cc1cncnc1)C(=O)O; Phe(4-COOH) = N[C@@H](Cc1ccc(C(=O)O)cc1)C(=O)O; Ala(4-Pyridazinyl) = N[C@@H](Cc1ccnnc1)C(=O)O; Ala(2-pyrazinyl) = N[C@@H](Cc1cnccn1)C(=O)O; Pro(cis-4-F) = O=C(O)[C@@H]1C[C@H](F)CN1; X45 = Cc1cc(C[C@H](N[*:1])C(=O)[*:2])no1; X38 = O=C([C@H](Cc1ncco1)N[*:1])[*:2]; AEF = NCCOc1ccc(C[C@H](N)C(=O)O)cc1; cisHyp = O=C(O)[C@@H]1C[C@H](O)CN1; d(αMeD) = C[C@@](N)(CC(=O)O)C(=O)O; h4Pal = N[C@@H](CCc1ccncc1)C(=O)O; 3Pal = N[C@@H](Cc1cccnc1)C(=O)O; 4Pal = N[C@@H](Cc1ccncc1)C(=O)O; Dab = NCC[C@H](N)C(=O)O; Aib = CC(C)(N)C(=O)O

T1 sequence (P01584 117-269): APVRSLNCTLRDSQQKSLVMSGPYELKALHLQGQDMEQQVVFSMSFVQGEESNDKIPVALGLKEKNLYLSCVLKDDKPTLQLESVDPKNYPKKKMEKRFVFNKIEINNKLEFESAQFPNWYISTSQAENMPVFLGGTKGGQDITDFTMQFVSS

The test addresses T1, IL-1β (Homo sapiens, UniProt P01584).
T1 construct: purchased BioLegend 579404
Briefly: IL-6 assay in MRC5 cells: inhibition of IL-1β induced IL-6 secretion (AlphaLISA). Format: cell-based. The note with it: inhibition of IL-1β induced IL-6 secretion in MRC5 cells; read-out: MRC5 IC50. A digest of the protocol: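 Compound was pre-incubated 1 h at ambient temperature with recombinant human IL-1β at 2λ EC80 before adding human lung fibroblast MRC5 cells (3000/well) in EMEM with 0.025% BSA. After overnight culture at 37 °C, 5% CO2, secreted IL-6 in conditioned medium was measured by AlphaLISA; IC50 from 4-parameter logistic fits.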
As to `CC(=O)NCCOc1ccc(C[C@@H]2NC(=O)[C@H]3C[C@@H](Cc4ccncc4)CN3C(=O)CNC(=O)[C@H](CCN)NC(=O)[C@H](CCC(N)=O)NC(=O)[C@H](Cc3cc(C)on3)NC(=O)C(C)(C)NC(=O)[C@H](Cc3c[nH]c4ccccc34)NC(=O)[C@H](CCC(=O)O)NC(=O)C(C)(C)NC(=O)[C@H]([C@@H](C)c3c[nH]c4cccc(F)c34)NC(=O)[C@@H]3C[C@H](F)CN3C(=O)CNC(=O)[C@H](Cc3ccc(C(=O)O)cc3)NC(=O)[C@H](Cc3ccncc3)NC2=O)cc1` [Example 315] (cyclo([AEF](Ac)[4Pal][Phe(4-COOH)]G[Pro(cis-4-F)][Trp(βS-Me,4-F)][Aib]EW[Aib][X45]Q[Dab]G[dPro(4R-(4-pyridylmethyl))])), the IC50 (commonly the concentration that inhibits the measured activity by half) was 0.018 nM.

For the molecule `CC(=O)NCCOc1ccc(C[C@@H]2NC(=O)[C@H]3C[C@@H](Cc4ccncc4)CN3C(=O)CNC(=O)[C@H](CCN)NC(=O)[C@H](CCC(N)=O)NC(=O)[C@H](Cc3ncco3)NC(=O)C(C)(C)NC(=O)[C@H](Cc3c[nH]c4ccccc34)NC(=O)[C@H](CCC(=O)O)NC(=O)C(C)(C)NC(=O)[C@H]([C@@H](C)c3c[nH]c4cccc(F)c34)NC(=O)[C@@H]3C[C@H](F)CN3C(=O)CNC(=O)[C@H](Cc3ccc(C(=O)O)cc3)NC(=O)[C@H](Cc3ccncc3)NC2=O)cc1` [Example 316] (cyclo([AEF](Ac)[4Pal][Phe(4-COOH)]G[Pro(cis-4-F)][Trp(βS-Me,4-F)][Aib]EW[Aib][X38]Q[Dab]G[dPro(4R-(4-pyridylmethyl))])), the IC50 stood at 0.02 nM. To `CC(=O)NCCOc1ccc(C[C@@H]2NC(=O)[C@H]3C[C@@H](Cc4ccncc4)CN3C(=O)CNC(=O)[C@H](CCN)NC(=O)[C@H](CCC(N)=O)NC(=O)[C@H](Cc3c[nH]cn3)NC(=O)C(C)(C)NC(=O)[C@H](Cc3c[nH]c4ccccc34)NC(=O)[C@H](CCC(=O)O)NC(=O)C(C)(C)NC(=O)[C@H]([C@@H](C)c3c[nH]c4cccc(F)c34)NC(=O)[C@@H]3C[C@H](F)CN3C(=O)CNC(=O)[C@H](Cc3ccc(C(=O)O)cc3)NC(=O)[C@H](Cc3ccncc3)NC2=O)cc1` [Example 317] (cyclo([AEF](Ac)[4Pal][Phe(4-COOH)]G[Pro(cis-4-F)][Trp(βS-Me,4-F)][Aib]EW[Aib]HQ[Dab]G[dPro(4R-(4-pyridylmethyl))])) belongs 0.015 nM; to `CC(=O)NCCOc1ccc(C[C@@H]2NC(=O)[C@H]3C[C@@H](Cc4ccncc4)CN3C(=O)CNC(=O)[C@H](CCN)NC(=O)[C@H](CCC(N)=O)NC(=O)[C@H](CCc3ccncc3)NC(=O)C(C)(C)NC(=O)[C@H](Cc3c[nH]c4ccccc34)NC(=O)[C@H](CCC(=O)O)NC(=O)C(C)(C)NC(=O)[C@H]([C@@H](C)c3c[nH]c4cccc(F)c34)NC(=O)[C@@H]3C[C@H](F)CN3C(=O)CNC(=O)[C@H](Cc3ccc(C(=O)O)cc3)NC(=O)[C@H](Cc3ccncc3)NC2=O)cc1` [Example 318] (cyclo([AEF](Ac)[4Pal][Phe(4-COOH)]G[Pro(cis-4-F)][Trp(βS-Me,4-F)][Aib]EW[Aib][h4Pal]Q[Dab]G[dPro(4R-(4-pyridylmethyl))])), 0.025 nM; to `C[C@@H](c1c[nH]c2cccc(F)c12)[C@@H]1NC(=O)[C@@H]2C[C@H](F)CN2C(=O)CNC(=O)[C@H](Cc2ccc(C(=O)O)cc2)NC(=O)[C@H](Cc2ccncc2)NC(=O)[C@H](Cc2ccc(-c3ccc(C(=O)O)cc3)cc2)NC(=O)[C@H]2C[C@@H](Cc3ccc(F)cc3)CN2C(=O)CNC(=O)[C@H](CCN)NC(=O)[C@H](CCC(N)=O)NC(=O)[C@H](CN2CCOCC2)NC(=O)[C@@](C)(CC(=O)O)NC(=O)[C@H](Cc2c[nH]c3ccccc23)NC(=O)[C@H](CO)NC(=O)C(C)(C)NC1=O` [Example 319] (cyclo([Bip(4'-COOH)][4Pal][Phe(4-COOH)]G[Pro(cis-4-F)][Trp(βS-Me,4-F)][Aib]SW[d(αMeD)][Ala(morpholin-4-yl)]Q[Dab]G[dPro(4R-Bzl(4-F))])), 0.017 nM. The value for `C[C@@H](c1c[nH]c2cccc(F)c12)[C@@H]1NC(=O)[C@@H]2C[C@H](F)CN2C(=O)CNC(=O)[C@H](Cc2ccc(C(=O)O)cc2)NC(=O)[C@H](Cc2ccncc2)NC(=O)[C@H](Cc2ccc(-c3ccc(C(=O)O)cc3)cc2)NC(=O)[C@H]2C[C@@H](Cc3ccc(F)cc3)CN2C(=O)CNC(=O)[C@H](CCN)NC(=O)[C@H](CCC(N)=O)NC(=O)[C@H](CC2CCNCC2)NC(=O)[C@@](C)(CC(=O)O)NC(=O)[C@H](Cc2c[nH]c3ccccc23)NC(=O)[C@H](CO)NC(=O)C(C)(C)NC1=O` [Example 320] (cyclo([Bip(4'-COOH)][4Pal][Phe(4-COOH)]G[Pro(cis-4-F)][Trp(βS-Me,4-F)][Aib]SW[d(αMeD)][Ala(piperidin-4-yl)]Q[Dab]G[dPro(4R-Bzl(4-F))])) was 0.015 nM. Consider `C[C@@H](c1c[nH]c2cccc(F)c12)[C@@H]1NC(=O)[C@@H]2C[C@H](F)CN2C(=O)CNC(=O)[C@H](Cc2ccc(C(=O)O)cc2)NC(=O)[C@H](Cc2ccncc2)NC(=O)[C@H](Cc2ccc(-c3ccc(C(=O)O)cc3)cc2)NC(=O)[C@H]2C[C@@H](Cc3ccc(F)cc3)CN2C(=O)CNC(=O)[C@H](CCN)NC(=O)[C@H](CCC(N)=O)NC(=O)[C@H](Cc2cnccn2)NC(=O)[C@@](C)(CC(=O)O)NC(=O)[C@H](Cc2c[nH]c3ccccc23)NC(=O)[C@H](CO)NC(=O)C(C)(C)NC1=O` [Example 321] (cyclo([Bip(4'-COOH)][4Pal][Phe(4-COOH)]G[Pro(cis-4-F)][Trp(βS-Me,4-F)][Aib]SW[d(αMeD)][Ala(2-pyrazinyl)]Q[Dab]G[dPro(4R-Bzl(4-F))])), for which the IC50 was 0.015 nM. Take `C[C@@H](c1c[nH]c2cccc(F)c12)[C@@H]1NC(=O)[C@@H]2C[C@H](F)CN2C(=O)CNC(=O)[C@H](Cc2ccc(C(=O)O)cc2)NC(=O)[C@H](Cc2ccncc2)NC(=O)[C@H](Cc2ccc(-c3ccc(C(=O)O)cc3)cc2)NC(=O)[C@H]2C[C@@H](Cc3ccc(F)cc3)CN2C(=O)CNC(=O)[C@H](CCN)NC(=O)[C@H](CCC(N)=O)NC(=O)[C@H](Cc2ccnnc2)NC(=O)[C@@](C)(CC(=O)O)NC(=O)[C@H](Cc2c[nH]c3ccccc23)NC(=O)[C@H](CO)NC(=O)C(C)(C)NC1=O` [Example 322] (cyclo([Bip(4'-COOH)][4Pal][Phe(4-COOH)]G[Pro(cis-4-F)][Trp(βS-Me,4-F)][Aib]SW[d(αMeD)][Ala(4-Pyridazinyl)]Q[Dab]G[dPro(4R-Bzl(4-F))])): the IC50 was found to be 0.013 nM.

In the case of `C[C@@H](c1c[nH]c2cccc(F)c12)[C@@H]1NC(=O)[C@@H]2C[C@H](F)CN2C(=O)CNC(=O)[C@H](Cc2ccc(C(=O)O)cc2)NC(=O)[C@H](Cc2ccncc2)NC(=O)[C@H](Cc2ccc(-c3ccc(C(=O)O)cc3)cc2)NC(=O)[C@H]2C[C@@H](Cc3ccc(F)cc3)CN2C(=O)CNC(=O)[C@H](CCN)NC(=O)[C@H](CCC(N)=O)NC(=O)[C@H](Cc2cccnc2)NC(=O)[C@@](C)(CC(=O)O)NC(=O)[C@H](Cc2c[nH]c3ccccc23)NC(=O)[C@H](CO)NC(=O)C(C)(C)NC1=O` [Example 323] (cyclo([Bip(4'-COOH)][4Pal][Phe(4-COOH)]G[Pro(cis-4-F)][Trp(βS-Me,4-F)][Aib]SW[d(αMeD)][3Pal]Q[Dab]G[dPro(4R-Bzl(4-F))])), the IC50 was determined as 0.012 nM. Take `C[C@@H](c1c[nH]c2cccc(F)c12)[C@@H]1NC(=O)[C@@H]2C[C@H](F)CN2C(=O)CNC(=O)[C@H](Cc2ccc(C(=O)O)cc2)NC(=O)[C@H](Cc2ccncc2)NC(=O)[C@H](Cc2ccc(-c3ccc(C(=O)O)cc3)cc2)NC(=O)[C@H]2C[C@@H](Cc3ccc(F)cc3)CN2C(=O)CNC(=O)[C@H](CCN)NC(=O)[C@H](CCC(N)=O)NC(=O)[C@H](Cc2ccncc2)NC(=O)[C@@](C)(CC(=O)O)NC(=O)[C@H](Cc2c[nH]c3ccccc23)NC(=O)[C@H](CO)NC(=O)C(C)(C)NC1=O` [Example 324] (cyclo([Bip(4'-COOH)][4Pal][Phe(4-COOH)]G[Pro(cis-4-F)][Trp(βS-Me,4-F)][Aib]SW[d(αMeD)][4Pal]Q[Dab]G[dPro(4R-Bzl(4-F))])): the concentration for half-maximal inhibition (IC50) stood at 0.013 nM.

`C[C@@H](c1c[nH]c2cccc(F)c12)[C@@H]1NC(=O)[C@@H]2C[C@H](O)CN2C(=O)CNC(=O)[C@H](Cc2ccc(C(=O)O)cc2)NC(=O)[C@H](Cc2ccncc2)NC(=O)[C@H](Cc2ccc(-c3ccc(C(=O)O)cc3)cc2)NC(=O)[C@H]2[C@@H](Cc3ccncc3)CCN2C(=O)CNC(=O)[C@H](CCN)NC(=O)[C@H](CCC(N)=O)NC(=O)[C@H](Cc2cncnc2)NC(=O)C(C)(C)NC(=O)[C@H](Cc2c[nH]c3ccccc23)NC(=O)[C@H](CO)NC(=O)C(C)(C)NC1=O` [Example 325] (cyclo([Bip(4'-COOH)][4Pal][Phe(4-COOH)]G[cisHyp][Trp(βS-Me,4-F)][Aib]SW[Aib][Ala(pyrimidin-5-yl)]Q[Dab]G[X4])): the IC50 was found to be 0.027 nM.

For `C[C@@H](c1c[nH]c2cccc(F)c12)[C@@H]1NC(=O)[C@@H]2C[C@H](F)CN2C(=O)CNC(=O)[C@H](Cc2ccc(C(=O)O)cc2)NC(=O)[C@H](Cc2ccncc2)NC(=O)[C@H](Cc2ccc(-c3ccc(C(=O)O)cc3)cc2)NC(=O)[C@H]2[C@@H](Cc3ccncc3)CCN2C(=O)CNC(=O)[C@H](CCN)NC(=O)[C@H](CCC(N)=O)NC(=O)[C@H](Cc2cncnc2)NC(=O)C(C)(C)NC(=O)[C@H](Cc2c[nH]c3ccccc23)NC(=O)[C@H](CO)NC(=O)C(C)(C)NC1=O` [Example 326] (cyclo([Bip(4'-COOH)][4Pal][Phe(4-COOH)]G[Pro(cis-4-F)][Trp(βS-Me,4-F)][Aib]SW[Aib][Ala(pyrimidin-5-yl)]Q[Dab]G[X4])), the IC50 worked out at 0.011 nM.

Regarding `C[C@@H](c1c[nH]c2cccc(F)c12)[C@@H]1NC(=O)[C@@H]2C[C@H](F)CN2C(=O)CNC(=O)[C@H](Cc2ccc(C(=O)O)cc2)NC(=O)[C@H](Cc2ccncc2)NC(=O)[C@H](Cc2ccc(-c3ccc(C(=O)O)cc3)cc2)NC(=O)[C@H]2C[C@@H](Cc3ccc(F)c4ccccc34)CN2C(=O)CNC(=O)[C@H](CCN)NC(=O)[C@H](CCC(N)=O)NC(=O)[C@H](Cc2cncnc2)NC(=O)[C@@](C)(CC(=O)O)NC(=O)[C@H](Cc2c[nH]c3ccccc23)NC(=O)[C@H](CO)NC(=O)C(C)(C)NC1=O` [Example 327] (cyclo([Bip(4'-COOH)][4Pal][Phe(4-COOH)]G[Pro(cis-4-F)][Trp(βS-Me,4-F)][Aib]SW[d(αMeD)][Ala(pyrimidin-5-yl)]Q[Dab]G[X11])), the IC50 came out at 0.016 nM.
